This is an account of results in the NIST ThermoML archive (doi:10.1016/j.jct.2017.07.019).

± gives the expanded uncertainty stated by the source.

The conditions of this series: Liquid, Ebulliometric method (Recirculating still).

Turning to `OCC(F)(F)C(F)F` [2,2,3,3-tetrafluoro-1-propanol], the “vapor or sublimation pressure” value (382.15 K) is reported as 101.3 ± 0.6 kPa.
Consider `ClC(Cl)Cl` [trichloromethane], for which the “vapor or sublimation pressure” value (334.35 K) amounted to 101.3 ± 0.7 kPa.
In the case of `O` [water], the “vapor or sublimation pressure” value (373.05 K) was 101.3 ± 0.6 kPa.
On to `Cc1ccc(C)cc1` [1,4-dimethylbenzene], for which the “vapor or sublimation pressure” value (411.45 K) is given as 101.3 ± 0.7 kPa.
